Assay results taken from US6943148B1, “Methods for delivering therapeutics across blood-barrier and for altering receptor binding affinity” (Nobex Corporation, priority 1998, dated 2005).
Where a SMILES comes first, the peptide text is derived from it. Where no end group is shown, it is not given here. The star is where a group is joined. X1 = CCCCCCCCCCCCCCCCOCCOCCOC(=O)*

What was measured:
[1] = Extraction and detection of enkephalin conjugates from the brain of dosed rats (HPLC); type: in vivo; settings: rat brain removed 10 minutes after dosing; 5 mg/kg cetyl-PEG2-enkephalin; compared with standard peak
Method: The following procedure was used to identify the presence of conjugate from the brain specimen of animals dosed with 5 mg/kg cetyl-PEG2-enkephalin SEQ ID NO: 1.
After 10 minutes of dosing, the brain of the animal was perfused with 1.5% triflouroacetic acid in PBS solution, and the brain was removed and frosen at −70° C. The brain was homogenized with 1 mL of 1.5% triflouroacetic acid in PBS solution and the homogenate was extracted with acetonitrile/isopropanol solution. The extract was treated with saturated sodium chloride solution and frozen at −20° C. for 2 hours. The organic layer was isolated and centrifuged at 4000 RPM. The supernatant was evaporated and the resulting residue was reconstituted in acetonitrile/isopropanol/water mixture. The reconstituted solution was analyzed by HPLC using a gradient of 10 to 100% isopropanol/water (0.1% trifloiroacetic acid) on a C-18 column. The presence and the concentration of cetyl-PEG2-enkephalin SEQ ID NO: 1 conjugate in the extract were measured by comparing the retention time and the peak area of standard solution under the same analytical condition.

Sprague-Dawley rats = test: Rat paw-hot plate test; type: in vivo; settings: for Mean Analgesia as Compared with Morphine at 3 mg/Kg @ 5 min / Mean Analgesia as Compared with Morphine at 3 mg/Kg @ 30 min: hot plate 52° C., dose (mg/kg): Morphine 3, Enkephalin 20, Cetyl 5, DHA 20, Cholesterol 5, Linolenic 10; for analgesic effect as compared to morphine as a baseline: hot plate, time not stated, enkephalin 20 mg/kg
Method: Adult, male Sprague-Dawley rats weighing 150-175 g were obtained from Charles River Breeding Laboratories (Raleigh, NC) and used for all animal studies. Rats were housed in hanging wire-bottomed cages in a vivarium equipped with a 12:12 light:dark cycle and humidity was maintained between 45-65% with a room temperature of […]. Rats were provided Purina Rodent Chow and tap water ad libitum.
Met-enkephalin-lys SEQ ID NO: 49 and met-enkephalin-lys SEQ ID NO: 1 derivatives were assessed for analgesic activity by rat paw-hot plate assay. Rats were given an injection of naloxone at 0.5 mg/kg (s.c.) then administered a single administration of cetyl-enkephalin SEQ ID NO: 1 by the tail vein 10 minutes later at a dose of 5.0 mg/kg.
In a separate study, rats were administered cetyl-enkephalin SEQ ID NO: 1 (5.0 mg/kg, i.v.) or clonidine (0.125 mg/kg, i.v.).
The latency to rat paw withdrawal from the hot plate was measured by a Hot Plate Analgesia Meter (Harvard Apparatus Ltd., Kent, England). The temperature of the hot plate was set and calibrated at 52° C. and rats were removed from the heat stimulus by 36 seconds after placement. Latency trials were terminated when the animal was either licking a hind paw or initiating a jump from the plate. Baseline measurements were collected 1 hour prior to drug administration and at various times post-injection, dependent upon the study conducted. All hot plate testing was terminated by 1 hour after drug dosing.

μ-receptor = molecular target: T1, μ-receptor (Rattus norvegicus, UniProt P33535); test: % SPECIFIC BINDING; settings: 0.1 µM
T1 construct: assessed for analgesic activity by rat paw-hot plate assay; from tissue; host or cells: whole living rat (in vivo)
Excerpt: Table printed on a drawing sheet, FIG.8
Head of the field: % […] BINDING
First copying reader's note: The title is printed as the top row inside the table frame and is given as the title, not as a grid row.

T1 sequence (P33535 whole entry, looked up): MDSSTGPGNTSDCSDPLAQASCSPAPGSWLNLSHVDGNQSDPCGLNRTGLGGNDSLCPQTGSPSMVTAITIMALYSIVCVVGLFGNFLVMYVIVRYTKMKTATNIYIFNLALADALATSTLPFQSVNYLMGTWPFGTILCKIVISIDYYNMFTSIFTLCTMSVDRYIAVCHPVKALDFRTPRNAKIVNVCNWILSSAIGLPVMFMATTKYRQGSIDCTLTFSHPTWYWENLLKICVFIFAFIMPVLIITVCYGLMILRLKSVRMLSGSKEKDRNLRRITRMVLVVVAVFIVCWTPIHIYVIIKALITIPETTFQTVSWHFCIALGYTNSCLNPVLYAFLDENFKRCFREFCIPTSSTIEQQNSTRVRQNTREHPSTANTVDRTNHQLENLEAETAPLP

Compound | Mean Analgesia as Compared with Morphine at 3 mg/Kg @ 5 min (Sprague-Dawley rats) | Mean Analgesia as Compared with Morphine at 3 mg/Kg @ 30 min (Sprague-Dawley rats) | % SPECIFIC BINDING (μ-receptor) | also measured
CCCCCCCCCCCCCCCCOCCOCCOC(=O)NCCCC[C@H](NC(=O)[C@H](CCSC)NC(=O)[C@H](Cc1ccccc1)NC(=O)CNC(=O)CNC(=O)[C@@H](N)Cc1ccc(O)cc1)C(=O)O [Cetyl-PEG-ENK, CETYL MET-ENKEPHALIN-LYS] (H-YGGFMK(X1)-OH) | – | – | – | Presence of conjugate peak in brain extract (HPLC) [1]: actually present in the brain exact
CN1CC[C@]23c4c5ccc(O)c4O[C@H]2[C@@H](O)C=C[C@H]3[C@H]1C5 [Morphine, reference compound] | 100% | 100% | – | –
CETYL-PEG2-ENK (SEQ ID NO: 1) (YGGFMK; also: cetyl-PEG2 conjugate, site not given here) [CETYL-ENK] | – | – | 100% | –
CETYL-PEG3-ENK (SEQ ID NO: 1) (YGGFMK; also: cetyl-PEG3 conjugate, site not given here) [CETYL-TEG-ENK] | – | – | 100% | –
CHOLESTEROL-PEG3-ENK (SEQ ID NO: 1) (YGGFMK; also: cholesterol-PEG3 conjugate, site not given here) [CHOL-ENK] | – | – | 95% | –
DHA MET-ENKEPHALIN-LYS [DHA-PEG-ENK] | 130% | 67% | – | analgesic effect as compared to morphine as a baseline (Sprague-Dawley rats): 130%
DHA-PEG2-ENK (SEQ ID NO: 1) (YGGFMK; also: DHA-PEG2 conjugate, site not given here) [DHA-ENK] | – | – | 63% | –
LINOLEIC MET-ENKEPHALIN-LYS [Linolenic-PEG-ENK] | 77% | 73% | – | –
Met enkephalin-lys (YGGFMK) [reference compound] | 0% | 0% | – | Presence of conjugate peak in brain extract (HPLC) [1]: neither the vehicle (FIG. 5C) nor the unconjugated enkephalin SEQ ID NO: 49 (FIG. 5D) showed a corresponding peak; analgesic effect as compared to morphine as a baseline (Sprague-Dawley rats): 0%
PALMITATE-PEG3-ENK (SEQ ID NO: 1) [PALM-ENK] | – | – | 76% | –
